For one assay, the system named is T47D cells. The assay can be described thus: perforin and granzyme B-induced tumor cell death. Format: cell-based, human. Particulars: FOXO1 knocked down T47D cells, FIG. 4h. As for the experimental part: Tumor cells were exposed to hypoxia for 24 hours, or the indicated conditions. Then, tumor cells were co-incubated with perform (APB317Hu01, Cloud-Clone) and granzyme B (2906-SE-010, R&D system) for 10 minutes. PI (10 μg/ml) was added into the culture. PI^+ cells were measured by flow cytometry.

For assay [1], the system named is 4T1 tumors. The assay is described as follows: therapeutic experiments in 4T1 tumor bearing BALB/cJ mice (tumor volume, tumor weight). The assay is classed as in vivo, mouse. Particulars: anti-PD-L1 and combination experiment. The method, then:
Six to eight week-old female BALB/cJ mice were purchased from The Jackson Laboratory. The work was approved by the Institutional Animal Care and Use Committee at the University of Michigan. Slc6a14^−/− and Slc6a14^+/+ 4T1 tumor cells were inoculated into the fourth right mammary fat pad of BALB/cJ mice. Tumor size was measured every three days using calipers fitted with Vernier scale. Tumor volume (TV) was calculated using the formula: TV=0.5×L×W^2. In some cases, single cell suspensions were made from spleen and tumor tissues for immune phenotype and function analysis.
(§1) For the therapeutic experiments, 2*10^4 4T1 cells were inoculated into the fourth right mammary fat pad of BALB/cJ mice. On day 3, mice were treated (i.p.) with 200 μg of anti-PD-L1 (Bio X Cell) every 3 days, and/or with 250 μg of 4-HAP (i.p., 278564, Sigma) every other day, and/or α-MT (2 mg/mL, M8377, Sigma) in drinking water. Tumor diameters were measured using calipers.

In assay [2] the test system is tumor cells. The assay can be described thus: tumor receptivity to CTL-killing in vitro. The settings on record: FIG. 9g as printed. The assay is classed as cell-based.
The subject of assay [3] is tumor cells. The settings on record: reference 46; cited from earlier work.
The next assay has as its system 4T1 cells. The assay is described as follows: 4T1 cell stiffness in vitro, Optical Tweezers Microscopy. The assay is classed as cell-based, mouse. Particulars: FIG. 8c. As for the experimental part:
OTM was established to measure tumor cell stiffness. A modular OTM (Thorlabs—OKBT) was adapted for axial cell indentation and force measurement. Briefly, a collimated laser beam (YLM-5-IPG Photonics—Yb fiber laser 1064 nm) was focused through a 100× objective (Nikon, N.A.=1.25, oil immersion) to produce a stable optical trap for 3 μm diameter silica microbeads (Bangs Laboratories) dispersed in the medium. During data acquisition, the cells were maintained at 37° C. by an integrated temperature controller unit (RS Components). The sample was imaged through the trapping objective and a tube lens by a CMOS camera (Thorlabs—DCC1240C). A microbead probe was individually trapped and positioned above the cell nucleus area of a selected cell using a piezoelectric NanoMax 3-axis flexure stage (Thorlabs). The position of the microbead in the trap was tracked by back focal plane interferometry method using the laser light scattered by the trapped bead. The trap height was in the range 3-6 μm from the cover-slip. The trap stiffness was calculated using the equipartition theorem and the power spectrum density methods considering the stiffness variations due to spherical aberrations and neighborhood of the cover-slip. […] Tumor cell stiffness was determined and expressed as […] per site. At least 15 cells per condition were analyzed.

Assay [4] has as its system 4T1 tumors. The assay is described as follows: Myh9 and Mylk expression in 4T1 tumors of treated mice (real-time PCR, immunoblots). Also noted: species or system mouse. Particulars: in vivo, α-MT in drinking water. The method, then:
as §1
Total RNA was extracted using TRIzol™ Reagent (ThermoFisher Scientific, USA). RNA was quantified by using NanoDrop spectrophotometer. Reverse transcription of the total cellular RNA was carried out using oligo (dT) primers and M-MLV reverse transcriptase (ThermoFisher Scientific, USA). RT-PCR primers are listed (Table 6). PCR was performed using QuantStudio 3 Real-time PCR system (Appliedbiosystems, Thermo Fisher Scientific, USA).
Cell lysates were prepared in RIPA buffer (Thermo Fisher Scientific, USA). The protein concentrations of cell lysates were determined by BCA protein assay kit (Thermo Scientific, USA). Equivalent amounts of total cellular protein were separated by SDS PAGE and transferred to PVDF membranes. The proteins were detected with specific antibodies (Table 7) and developed using ChemiDoc™ Imaging System (Bio-Rad, USA).

The test system of assay [5] is 4T1 tumors. The assay can be described thus: tumor stiffness in vivo by atomic force microscopy. The settings on record: FIG. 5f. Also noted: species or system mouse. As for the experimental part: as §1
AFM was used to measure tumor tissue stiffness in vivo. MFP-3D AFM (Asylum Research, Santa Barbara, CA) combined with a Nikon Ti inverted optical microscope (Nikon, Melville, NY) was used to optically align the probe to the cells. The probes used in this study were MCST-AUHW (Bruker, Camarillo, CA) with a nominal spring constant of 0.03 N/m. […] To eliminate the confounding effects of neighboring cells on cytoskeleton arrangement and morphology, single cells were measured.
For in vivo tumor cell stiffness detection, fresh tumor tissues were excised and prepared immediately as frozen slices. […] The deflection sensitivity was determined in fluid using glass substrates as an infinitely stiff reference material. AFM at room temperature involved recording up to 6×6 point grids (36 force-displacement curves per map) was recorded. […] Force curves were analyzed using the Oliver and Pharr method. Tumor stiffness was determined and expressed as log 10 (pascal) per site. At least 24 sites per tumor tissue were analyzed.

The next assay deals with T1, SLC6A14 (Homo sapiens, UniProt Q9UN76).
T1 sequence (Q9UN76 1-642): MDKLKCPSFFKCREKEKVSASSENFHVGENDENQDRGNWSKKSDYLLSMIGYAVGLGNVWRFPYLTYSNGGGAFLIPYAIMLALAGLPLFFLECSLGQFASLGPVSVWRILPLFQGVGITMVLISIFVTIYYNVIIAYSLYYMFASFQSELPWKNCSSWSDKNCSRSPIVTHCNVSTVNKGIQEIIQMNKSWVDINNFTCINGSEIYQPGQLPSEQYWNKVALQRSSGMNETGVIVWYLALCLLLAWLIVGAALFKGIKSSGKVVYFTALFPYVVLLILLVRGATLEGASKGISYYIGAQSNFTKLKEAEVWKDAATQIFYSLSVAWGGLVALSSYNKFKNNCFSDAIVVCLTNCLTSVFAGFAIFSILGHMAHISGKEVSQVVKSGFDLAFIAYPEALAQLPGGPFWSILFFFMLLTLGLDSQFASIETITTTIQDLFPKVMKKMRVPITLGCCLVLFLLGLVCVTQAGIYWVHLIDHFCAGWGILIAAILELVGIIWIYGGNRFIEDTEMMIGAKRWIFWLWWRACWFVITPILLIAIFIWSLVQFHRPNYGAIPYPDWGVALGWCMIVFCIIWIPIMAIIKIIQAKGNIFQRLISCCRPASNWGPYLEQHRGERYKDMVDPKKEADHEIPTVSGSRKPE
The settings on record: reference 41; cited from earlier work.

Results on two compounds are retold here after patent publication US20240299354A1, “COMPOSITIONS AND METHODS FOR TREATING CANCER” (The Regents of the University of Michigan, priority 2021, published 2024).

For the compound `CC(=O)c1ccc(O)cc1` [4-HAP, 4′-Hydroxyacetophenone], the “perforin and granzyme B-induced T47D cell death” value in the assay on T47D cells is “rescued”. Besides, the “4T1 tumor progression / tumor growth” value with 4T1 tumors [1] (4-HAP, tumor weights and volume, FIG. 5k-l) is on record as “partially slowed down”. The “tumor receptivity to CTL-killing” value with tumor cells [2] was “promote”. Also, the “stiffening of tumor cells” value with tumor cells [3] was “can stiffen tumor cells”.

For the compound `CC(N)(Cc1c[nH]c2ccccc12)C(=O)O` (racemic) [α-MT, α-methyl-DL-tryptophan], in the assay with 4T1 cells, the 4T1 cell stiffness result is recorded as “enhanced”. In the assay on 4T1 tumors [1] (α-MT, tumor volumes and weight, FIG. 5i-j), the “4T1 tumor progression / tumor growth” value was “partially and similarly slowed down”. Also, the “levels of Myh9 and Mylk proteins in 4T1 tumors” value with 4T1 tumors [4] (immunoblots, FIG. 5e) is “reduced levels”. The “levels of Myh9 and Mylk transcripts in 4T1 tumors” value with 4T1 tumors [4] (real-time PCR, FIG. 5d) is “reduced levels”. Also, the “4T1 tumor cell stiffness in vivo” value in the assay on 4T1 tumors [5] is recorded as “increased”. For the same compound, the “inhibition of SLC6A14” value on SLC6A14 is “functionally inhibits”.
